The conditions of data set [1]: cited from earlier work.
The test system of another data set is infliximab. Kind of data set: Viscosity reduction of highly concentrated infliximab solution (cone/plate rheometer). The settings on record: for % viscosity reduction relative to the control infliximab solution: pH 7.2±0.2. It is filed as physicochemical. The source says:
(§1) For this example, three solutions of monoclonal antibodies, i.e. a solution of bevacizumab (an IgG1 sold under the name Avastin® by Genentech/Hoffmann La Roche), a solution of infliximab (an IgG1/κ sold under the name Remicade® by Schering-Plough) and a solution of trastuzumab (an IgG1/κ sold under the name Herceptin® by Genentech), were concentrated by ultrafiltration on Amicon® Ultra-15 centrifuge filtration units with a cutoff threshold of 50 kDa. The protein concentration of each concentrated solution was measured by UV spectroscopy (absorbance at 280 nm) after dilution of the samples.
(§2) The commercial solution of bevacizumab (25 mg/ml) was concentrated to 268 mg/ml. […] Once reconstituted, the infliximab and trastuzumab formulations were concentrated to, respectively, 183 mg/ml and 243 mg/ml.
(§3) The effect of uridine compared with that of arginine and of NaCl on the viscosity of these three highly concentrated therapeutic protein solutions was then evaluated. For this, the viscosity was measured using a cone/plate rheometer (TA Instruments, AR 2000 Ex, geometry or diameter 20 mm, cone of 0.5131°, solvent trap filled with water) at a temperature of 21° C. and in flow sweep mode with shear rates of between 5000 and 50 s^−1 (3 points per decade-steady-state sensing). All the viscosity values are determined at the level of the Newtonian plateau.
The samples thus prepared were stored at ambient temperature and were analyzed using a rheometer within 24 hours of their preparation. […]
(§4) The pH of these formulations (“Protein+Urid”, “Protein+Arg” and “Protein+NaCl” and “controls”) is the same as that of the commercial formulation of the corresponding therapeutic protein (table II).
(§5) The results of the measurements relating to this second example are given in table III hereinafter in the form of percentages of viscosity reduction relative to the control solution of therapeutic protein alone, at the same protein concentration as the “Protein+Urid”, “Protein+Arg” or “Protein+NaCl” formulations.
(§6) In this study, the highly concentrated bevacizumab and infliximab solutions used are the same as those which were prepared and used previously. The “Protein+Cyt”, “Protein+Deoxycyt”, “Protein+Urid”, “Protein+Arg”, “Protein+NaCl” and “Protein+ATP” formulations were prepared in the presence of 150 mM of cytidine, of 2′-deoxycytidine, of uridine, of arginine, of NaCl or of sodium salt of adenosine 5′-triphosphate.
(§7) The viscosity of the “Protein+Cyt”, “Protein+Deoxycyt” and “Protein+Urid” formulations was then measured as described in example 2 and compared with that obtained for the “Protein+Arg”, “Protein+NaCl” and “Protein+ATP” formulations. The pH of these formulations is the same as that of the corresponding therapeutic protein formulation, i.e. 6.2±0.2 for bevacizumab and 7.2±0.2 for infliximab.
(§8) The results of the measurements relating to this example are given in tables IV and V hereinafter in the form of percentages of viscosity reduction relative to the control solution of therapeutic protein alone, at the same protein concentration as the “Protein+Cyt”, “Protein+Deoxycyt”, “Protein+Urid”, “Protein+Arg”, “Protein+NaCl” and “Protein+ATP” formulations.
The highly concentrated infliximab solution used is the same as that which was prepared previously. The “Protein+Cyt” and “Protein+Arg” formulations were prepared in the presence of 150 mM of cytidine or of arginine and with infliximab concentrations decreasing from 150 mg/ml to 80 mg/ml.
The pH of these formulations is the same as that of the commercial infliximab formulation, i.e. 7.2±0.2. The viscosity of the formulations thus prepared was measured as described in example 2.
The results of the measurements relating to this example are given in table VI hereinafter in the form of percentages of viscosity reduction relative to the control Infliximab solution.
The highly concentrated infliximab solution used is the same as that which was prepared and used previously. […]

Another data set deals with bevacizumab. The data set is described as follows: Viscosity reduction of highly concentrated bevacizumab solution (cone/plate rheometer). It is filed as physicochemical. The following applies: bevacizumab 220 mg/ml, 150 mM agent.
Text: as §1, §2, §3
(§9) For this example, the “Protein+Urid”, “Protein+Arg” and “Protein+NaCl” formulations were prepared by mixing one of the previously prepared undine, arginine or NaCl solutions, with Milli-Q® water and with one of the previously prepared concentrated protein solutions so as to achieve a final uridine, arginine or NaCl concentration of 150 mmol/l (mM) and a final protein concentration of 220 mg/ml for bevacizumab, 150 mg/ml for infliximab and 200 mg/ml for trastuzumab. The samples thus prepared were stored at ambient temperature and were analyzed using a rheometer within 24 hours of their preparation.
(§10) The “control” solutions are prepared by dilution in Milli-Q® water, so as to achieve a final protein concentration of 220 mg/ml for bevacizumab, 150 mg/ml for infliximab and 200 mg/ml for trastuzumab.
as §4, §5, §6, §7, §8

In another data set the test system is trastuzumab. The data set is described as follows: Viscosity reduction of highly concentrated trastuzumab solution (cone/plate rheometer). The settings on record: trastuzumab 200 mg/ml, 150 mM agent, pH 6.0±0.2, 21° C. (Table III). In kind it is physicochemical.
Text: as §1, §2, §3, §9, §10, §4, §5

Where [2] appears, read: Infliximab 105 mg/ml, 50 mM agent, pH 7.2.
[3] abbreviates: Infliximab 105 mg/ml, 150 mM agent, pH 7.2 (Table VII).
Setting [4] is: Infliximab 105 mg/ml, 300 mM agent, pH 7.2.
Where [5] appears, read: infliximab 80 mg/ml, 150 mM agent.
The mark [6] stands for this setting: infliximab 105 mg/ml, 150 mM agent.
The mark [7] stands for this setting: infliximab 125 mg/ml, 150 mM agent.
Where [8] appears, read: infliximab 140 mg/ml, 150 mM agent.
Setting [9] is: infliximab 150 mg/ml, 150 mM agent.
The mark [10] stands for this setting: infliximab 150 mg/ml, 150 mM agent, pH 7.2±0.2 (Table V).
[11] abbreviates: infliximab 150 mg/ml, 150 mM agent, pH 7.2±0.2, 21° C. (Table III).

The text below walks through data of US9457089B2, “Highly concentrated aqueous protein solution with reduced viscosity” (ADOCIA, priority 2012, dated 2016).

SMILES strings stand for the structures. Counter-ions that a name gives are not always drawn.

For the compound `Nc1nc2c(ncn2[C@@H]2O[C@H](CO)[C@@H](O)[C@H]2O)c(=O)[nH]1` [guanosine], in data set [1], the “solubility (in words)” value is “very poor solubility”.
With `Nc1ccn([C@@H]2O[C@H](CO)[C@@H](O)[C@H]2O)c(=O)n1` [Cyt, Cytidine], the “% viscosity reduction relative to the “protein alone” control” value is reported as 39% in the data set on infliximab (setting [2]); 68% with infliximab (setting [3]); 72% in the data set on infliximab (setting [4]); 76% in the data set with infliximab (setting [10]); 43% in the data set with bevacizumab (pH 6.2±0.2 (Table IV)). Besides, the “% viscosity reduction relative to the control infliximab solution” value worked out at 58% in the data set on infliximab (setting [5]); 68% with infliximab (setting [6]); 69% in the data set with infliximab (setting [7]); 77% with infliximab (setting [8]); 76% in the data set on infliximab (setting [9]).
As for `O=c1ccn([C@@H]2O[C@H](CO)[C@@H](O)[C@H]2O)c(=O)[nH]1` [Urid, Uridine], the “% viscosity reduction relative to the “protein alone” control” value with infliximab (setting [10]) was 70%; with infliximab (setting [11]), 70%; with infliximab (infliximab 150 mg/ml, 150 mM agent, pH 7.2±0.2, 21° C. (Table III), listed as uridine), 70%; in the data set with bevacizumab (pH 6.2±0.2 (Table IV)) it was 64%; in the data set on bevacizumab (pH 6.2±0.2, 21° C. (Table III)), 64%; in the data set with bevacizumab (pH 6.2±0.2, 21° C. (Table III), listed as uridine), 64%. Also, the “% viscosity reduction relative to the “protein alone” control” value with trastuzumab and in the data set on trastuzumab (listed as uridine) was 35% in each case.
In the case of `Nc1ncnc2c1ncn2[C@@H]1O[C@H](COP(=O)(O)OP(=O)(O)OP(=O)(O)O)C(O)C1O` (stereo partly drawn) [ATP, Sodium salt of adenosine 5′-triphosphate], the “effect on the viscosity of infliximab (in words)” value in the data set on infliximab (setting [9]) is listed as “does not make it possible to reduce the viscosity”. Further, the “% viscosity reduction relative to the “protein alone” control” value with infliximab (setting [10]) is given as 0%; with bevacizumab (pH 6.2±0.2 (Table IV)), −14%. Besides, the “effect on the viscosity of bevacizumab (in words)” value was “does not make it possible to reduce the viscosity” with bevacizumab and “does not make it possible, a fortiori, to reduce the viscosity” in the data set on bevacizumab (listed as sodium salt of adenosine 5′-triphosphate). In the data set with bevacizumab, the “increase of the viscosity of bevacizumab” value is 14%.
On to `Nc1ccn([C@H]2C[C@H](O)[C@@H](CO)O2)c(=O)n1` [Deoxycyt, 2′-Deoxycytidine], for which the “% viscosity reduction relative to the “protein alone” control” value is 75% with infliximab (setting [10]) and 51% in the data set with bevacizumab (pH 6.2±0.2 (Table IV)).
On to `Cl.N=C(N)NCCC[C@H](N)C(=O)O` [Arg, L-arginine hydrochloride salt], for which the “% viscosity reduction relative to the “protein alone” control” value with infliximab (setting [2]) came to 32%; in the data set on infliximab (setting [3]) it was 46%; with infliximab (setting [4]) it was 58%; in the data set with infliximab (setting [10]), 55%; in the data set on infliximab (setting [11]), 55%; with bevacizumab (pH 6.2±0.2 (Table IV)) it was 46%. Also, the “% viscosity reduction relative to the “protein alone” control” value in the data set with bevacizumab (pH 6.2±0.2, 21° C. (Table III)) was found to be 46%; with trastuzumab it was 48%. Moreover, the “% viscosity reduction relative to the control infliximab solution” value came out at 36% in the data set on infliximab (setting [5]); 47% in the data set on infliximab (setting [6]); 46% in the data set on infliximab (setting [7]); 59% in the data set on infliximab (setting [8]); 55% with infliximab (setting [9]).
Consider `[Cl-].[Na+]` [NaCl, Sodium chloride], for which the “% viscosity reduction relative to the “protein alone” control” value is reported as 20% with infliximab (setting [2]); −6% with infliximab (setting [3]); −90% with infliximab (setting [4]); 6% in the data set on infliximab (setting [10]); 6% in the data set on infliximab (setting [11]); 24% in the data set with bevacizumab (pH 6.2±0.2 (Table IV)). Besides, the “% viscosity reduction relative to the “protein alone” control” value amounted to 24% with bevacizumab (pH 6.2±0.2, 21° C. (Table III)) and 34% in the data set with trastuzumab.
